Literature values as cited in US12064417B2, “Combination comprising a glucocorticoid and EDO-S101” (Purdue Pharmaceutical Products L.P., priority 2014, dated 2024).

Test system: multiple myeloma cell lines
Conditions: in vitro, relative to bendamustin

Cn1c(CCCCCCC(=O)NO)nc2cc(N(CCCl)CCCl)ccc21 [EDO-S101]
activity greater than the activity shown by bendamustin: 35-100
